From US20200370045A1, “METHOD OF TREATING TYPE II DIABETES AND OBESITY AND METHOD OF SCREENING A MEDICAMENT FOR THE SAME” (Tsinghua University, priority 2017, published 2020) come the findings set out here.

Common to all, as to format: in vivo
Data set [1] concerns microRNA-708. In words: Obesity level of HFD-fed obese mice treated with antisense nucleic acid of microRNA-708. The settings on record: 2-month old obese mice fed with HFD for two months; subcutaneously injected at 10 D/g weekly for four weeks; FIG. 13. From the text: (§1) A designed RNA sequence ([…] (SEQ ID NO: 2)), reverse complementary to microRNA-708, was subcutaneously injected at 10 D/g to 2-month old obese mice (fed with HFD for two months) weekly for four weeks.

Data set [2] concerns microRNA-708. In words: Glucose tolerance test (GTT) in obese mice treated with antisense nucleic acid of microRNA-708. The settings on record: obese mice treated with antisense nucleic acids; FIG. 14. As to the method:
(§2) As obesity is closely related to type II diabetes, the present inventors also examined the role of microRNA-708 in insulin sensitivity, where insulin tolerance test (ITT) and glucose tolerance test (GTT) were adopted. ITTs of the microRNA-708 knockout mice were assayed 0, 15, 30, 60, and 90 min after an intraperitoneal injection of insulin (diluted as 0.5 U/ml in saline and dosed at 0.5-1.2 U insulin per kg body mass, e.g., 0.5 U insulin per kg body mass, […]) following a 4 h fast. GTTs of the microRNA-708 knockout mice were assayed 0, 15, 30, 60, and 90 min after an intraperitoneal injection of glucose (diluted as 20% glucose solution in saline and dosed at 0.5-2 g glucose per kg body mass, e.g., 1 g glucose per kg body mass) following overnight fast.
as §1

Data set [3] relates to microRNA-708. In words: Insulin tolerance test (ITT) in obese mice treated with antisense nucleic acid of microRNA-708. To be noted: 2-month old obese mice fed with HFD for two months; subcutaneously injected at 10 D/g weekly for four weeks; FIG. 15. The method, then: as §2, §1

Consider CCCAGCUAGACUUGUAAGUCCUU [SEQ ID NO: 2], for which, in the data set on microRNA-708 [1], the obesity levels result is “declined distinctly”. Moreover, the glucose tolerance result in the data set on microRNA-708 [2] was “obvious relieved”. In the data set with microRNA-708 [3], the “insulin tolerance symptoms (insulin resistance)” value was “significantly alleviated”.
